How the values were obtained:
PC-3 = assay: cells; type: functional, cell-based; settings: Homo sapiens, PC-3, 48 h
HCT-116 = assay: cells; type: functional, cell-based; settings: Homo sapiens, HCT-116, 48 h
Histone deacetylase = type: protein assay, Homo sapiens; settings: hela
HepG2 = assay: cells; type: functional, cell-based; settings: Homo sapiens, HepG2, 48 h
A549 = assay: cells; type: functional, cell-based; settings: Homo sapiens, A549, 48 h
Homo sapiens [1] = species on record: Homo sapiens; assay: Selectivity ratio of IC50 for human recombinant HDAC4 to human recombinant HDAC6
Histone deacetylase 4 = Histone deacetylase 4 (Homo sapiens, UniProt P56524); assay: Inhibition of human recombinant HDAC4 using p53 residues 379-382 (RHKKAc) as substrate
[2] = molecular target: T1, Protein deacetylase HDAC6 (Homo sapiens, UniProt Q9UBN7)
T1 sequence (Q9UBN7 whole entry): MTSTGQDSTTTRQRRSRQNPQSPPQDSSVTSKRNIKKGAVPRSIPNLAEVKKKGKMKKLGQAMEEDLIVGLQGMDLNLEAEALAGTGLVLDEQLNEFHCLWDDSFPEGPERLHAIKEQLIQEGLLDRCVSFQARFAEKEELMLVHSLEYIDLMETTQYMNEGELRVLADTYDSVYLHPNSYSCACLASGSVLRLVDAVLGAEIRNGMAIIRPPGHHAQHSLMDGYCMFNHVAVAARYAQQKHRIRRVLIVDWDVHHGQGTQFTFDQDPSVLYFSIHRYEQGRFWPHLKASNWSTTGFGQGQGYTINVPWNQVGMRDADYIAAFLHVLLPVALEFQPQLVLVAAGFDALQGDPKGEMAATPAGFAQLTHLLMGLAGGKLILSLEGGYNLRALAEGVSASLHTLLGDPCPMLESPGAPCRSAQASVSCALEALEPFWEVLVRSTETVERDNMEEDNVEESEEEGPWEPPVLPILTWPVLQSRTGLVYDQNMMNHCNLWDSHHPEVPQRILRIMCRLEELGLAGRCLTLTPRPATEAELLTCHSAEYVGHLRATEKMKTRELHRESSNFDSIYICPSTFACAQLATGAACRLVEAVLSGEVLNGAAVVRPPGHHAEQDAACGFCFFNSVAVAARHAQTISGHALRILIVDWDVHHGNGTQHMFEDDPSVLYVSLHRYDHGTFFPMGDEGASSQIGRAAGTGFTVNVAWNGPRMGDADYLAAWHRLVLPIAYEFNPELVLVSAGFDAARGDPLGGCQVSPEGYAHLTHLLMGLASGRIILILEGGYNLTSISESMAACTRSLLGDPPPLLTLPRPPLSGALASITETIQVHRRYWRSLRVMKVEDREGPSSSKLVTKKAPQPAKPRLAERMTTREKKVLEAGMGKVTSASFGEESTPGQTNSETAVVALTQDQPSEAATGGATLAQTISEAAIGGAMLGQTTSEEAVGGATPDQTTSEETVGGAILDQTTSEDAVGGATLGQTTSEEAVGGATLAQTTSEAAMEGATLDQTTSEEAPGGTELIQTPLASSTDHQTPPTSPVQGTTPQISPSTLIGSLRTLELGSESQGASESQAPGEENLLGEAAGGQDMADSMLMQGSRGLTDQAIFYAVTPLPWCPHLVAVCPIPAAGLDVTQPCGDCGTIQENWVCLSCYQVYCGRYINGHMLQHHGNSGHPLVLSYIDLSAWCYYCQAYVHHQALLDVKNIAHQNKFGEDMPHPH

Histone deacetylase 1 = Histone deacetylase 1 (Homo sapiens, UniProt Q13547); assay: Inhibition of human recombinant HDAC1 using p53 residues 379-382 (RHKKAc) as substrate
Homo sapiens [3] = species on record: Homo sapiens; assay: Selectivity ratio of IC50 for human recombinant HDAC1 to human recombinant HDAC6

Sequence of Histone deacetylase 1 (Q13547 whole entry, the tested form may be a part): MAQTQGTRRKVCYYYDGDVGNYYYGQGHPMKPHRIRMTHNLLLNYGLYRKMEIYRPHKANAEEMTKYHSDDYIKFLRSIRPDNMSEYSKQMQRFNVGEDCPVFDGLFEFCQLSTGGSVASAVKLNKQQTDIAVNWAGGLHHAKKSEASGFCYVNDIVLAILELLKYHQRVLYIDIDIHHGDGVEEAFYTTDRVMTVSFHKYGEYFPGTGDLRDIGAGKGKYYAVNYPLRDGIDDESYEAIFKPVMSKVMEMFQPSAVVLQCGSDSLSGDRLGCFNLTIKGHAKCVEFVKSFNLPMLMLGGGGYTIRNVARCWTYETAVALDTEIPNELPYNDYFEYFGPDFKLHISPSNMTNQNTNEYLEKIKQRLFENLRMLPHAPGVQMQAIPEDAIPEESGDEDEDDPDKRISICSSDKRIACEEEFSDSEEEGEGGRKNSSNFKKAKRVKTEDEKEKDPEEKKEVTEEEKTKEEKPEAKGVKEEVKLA
Sequence of Histone deacetylase 4 (P56524 whole entry, the tested form may be a part): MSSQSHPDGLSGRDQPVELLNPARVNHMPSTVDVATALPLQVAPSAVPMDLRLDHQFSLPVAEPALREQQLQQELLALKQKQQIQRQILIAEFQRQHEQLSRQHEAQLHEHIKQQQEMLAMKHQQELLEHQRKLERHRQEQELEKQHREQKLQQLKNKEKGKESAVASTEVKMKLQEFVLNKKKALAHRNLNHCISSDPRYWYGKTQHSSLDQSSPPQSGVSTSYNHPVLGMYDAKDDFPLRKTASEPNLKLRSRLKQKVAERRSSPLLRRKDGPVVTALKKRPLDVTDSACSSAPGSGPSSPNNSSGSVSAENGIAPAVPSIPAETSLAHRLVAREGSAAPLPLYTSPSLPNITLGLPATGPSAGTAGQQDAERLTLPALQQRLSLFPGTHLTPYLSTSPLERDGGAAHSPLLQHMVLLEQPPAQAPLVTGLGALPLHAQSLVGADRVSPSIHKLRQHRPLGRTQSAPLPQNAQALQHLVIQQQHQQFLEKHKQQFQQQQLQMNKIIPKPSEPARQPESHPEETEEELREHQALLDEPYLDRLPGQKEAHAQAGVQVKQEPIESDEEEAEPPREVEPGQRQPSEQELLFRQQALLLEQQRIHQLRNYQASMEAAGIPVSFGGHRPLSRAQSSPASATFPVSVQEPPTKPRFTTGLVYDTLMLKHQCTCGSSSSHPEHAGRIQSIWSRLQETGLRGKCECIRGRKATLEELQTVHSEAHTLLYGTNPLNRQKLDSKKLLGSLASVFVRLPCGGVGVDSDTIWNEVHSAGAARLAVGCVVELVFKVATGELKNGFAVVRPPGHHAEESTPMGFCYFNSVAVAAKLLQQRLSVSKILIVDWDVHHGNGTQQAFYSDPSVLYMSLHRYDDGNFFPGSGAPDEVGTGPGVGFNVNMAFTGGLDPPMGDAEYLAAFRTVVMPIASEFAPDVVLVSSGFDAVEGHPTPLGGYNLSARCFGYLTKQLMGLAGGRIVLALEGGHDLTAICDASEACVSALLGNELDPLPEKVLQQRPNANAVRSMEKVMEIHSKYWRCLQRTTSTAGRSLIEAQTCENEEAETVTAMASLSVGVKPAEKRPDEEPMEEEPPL

| Compound | EC50 (PC-3) [µM] | EC50 (HCT-116) [µM] | IC50 (Histone deacetylase) [µM] | EC50 (HepG2) [µM] | EC50 (A549) [µM] | Ratio IC50 (Homo sapiens [1]) | IC50 (Histone deacetylase 4) [µM] | IC50 [2] [µM] | IC50 (Histone deacetylase 1) [µM] | Ratio IC50 (Homo sapiens [3]) |
| --- | --- | --- | --- | --- | --- | --- | --- | --- | --- | --- |
| CCCCN(CCc1ccc2c(c1)OCO2)Cc1ccc(/C=C/C(=O)NO)o1 | 33.2 | 17 | > 2.69 | 54.3 | 78.2 |  |  |  |  |  |
| O=C(/C=C/c1ccc(CN(CCc2ccc3c(c2)OCO3)Cc2ccccc2)o1)NO | 34.5 | 91.4 | 2.28 | 73.2 | 35.4 |  |  |  |  |  |
| O=C(/C=C/c1ccc(CN(CCCCOc2ccccc2)CCc2ccc3c(c2)OCO3)o1)NO | 15.5 | 35.9 | 1.57 | 97.7 | 46.8 |  |  |  |  |  |
| O=C(/C=C/c1ccc(CN(CCOc2ccccc2)Cc2ccc(-c3ccccc3)cc2)o1)NO | 15.9 | 9.53 | 1.21 | 18.1 | 26.4 |  |  |  |  |  |
| O=C(/C=C/c1ccc(CN(CCO)CCc2ccc3c(c2)OCO3)o1)NO | 92.5 | 69.5 | 0.4 | 105 | 87.9 |  |  |  |  |  |
| Cc1ccc(OCCN(Cc2ccc(-c3ccccc3)cc2)Cc2ccc(/C=C/C(=O)NO)o2)cc1 | 18.8 | 6.93 | 1.71 | 19.4 | 23 | 7.95 | 9.07 | 1.14 | 4.09 | 3.59 |
| CC(C)CN(CCc1ccc2c(c1)OCO2)Cc1ccc(/C=C/C(=O)NO)o1 | 16.1 | 17.1 | > 2.69 | 38 | 39.3 |  |  |  |  |  |
| CC(C)N(Cc1ccccc1)Cc1ccc(/C=C/C(=O)NO)o1 | 26.9 | 22.7 | 0.18 | 67.5 | 34.5 | 11.6 | 3.96 | 0.34 | 2.37 | 6.94 |
| O=C(/C=C/c1ccc(CN(CCCCOc2ccccc2)Cc2ccc(-c3ccccc3)cc2)o1)NO | 23.6 | 2.76 | > 2.02 | 32.9 | 22.4 |  |  |  |  |  |
| O=C(/C=C/c1ccc(CN(CCOc2ccccc2)Cc2ccccc2)o1)NO | > 128 | 20.1 | > 2.55 | 44.7 | 52.3 | 26.2 | 50.6 | 1.93 | 20.2 | 10.5 |
| O=C(CCCCCCC(=O)Nc1ccc([C@H]2O[C@@H](CSc3nc(-c4ccccc4)c(-c4ccccc4)o3)C[C@@H](c3ccc(CO)cc3)O2)cc1)NO |  |  |  |  |  |  |  |  |  | 7 |
| Cc1ccc(OCCN(Cc2ccccc2)Cc2ccc(/C=C/C(=O)NO)o2)cc1 | 51.7 | 14.8 | 1.87 | 13 | 52.6 | 21.8 | 68.1 | 3.13 | 31.4 | 10 |
| Cc1ccc(OCCCCN(Cc2ccccc2)Cc2ccc(/C=C/C(=O)NO)o2)cc1 | 15.7 | 5.62 | 1.31 | 16.3 | 9.82 | 23.1 | 12.6 | 0.55 | 4.73 | 8.63 |
| O=C(/C=C/c1ccc(CN(CCCOc2ccccc2)Cc2ccccc2)o1)NO | 44.9 | 7.24 | 1.48 | 15 | 25.8 | 15.6 | 12.3 | 0.79 | 6.48 | 8.21 |
| Cc1ccc(OCCCN(Cc2ccccc2)Cc2ccc(/C=C/C(=O)NO)o2)cc1 | 42.2 | 6.02 | 2.54 | 5.95 | 7.95 | 14.2 | 13.2 | 0.93 | 9.66 | 10.4 |
| O=C(/C=C/c1ccc(CN(CCCOc2ccccc2)Cc2ccc(-c3ccccc3)cc2)o1)NO | 25.2 | 2.05 | > 2.07 | 12.7 | 16.6 |  |  |  |  |  |

| Compound | EC50 (PC-3) [µM] | EC50 (HCT-116) [µM] | IC50 (Histone deacetylase) [µM] | EC50 (HepG2) [µM] | EC50 (A549) [µM] | Ratio IC50 (Homo sapiens [1]) | IC50 (Histone deacetylase 4) [µM] | IC50 [2] [µM] | IC50 (Histone deacetylase 1) [µM] | Ratio IC50 (Homo sapiens [3]) |
| --- | --- | --- | --- | --- | --- | --- | --- | --- | --- | --- |
| CCCCCN(CCc1ccc2c(c1)OCO2)Cc1ccc(/C=C/C(=O)NO)o1 | 37.1 | 74.8 | 3.49 | 65.3 | 72.5 |  |  |  |  |  |
| CCCCCCCCN(Cc1ccc(-c2ccccc2)cc1)Cc1ccc(/C=C/C(=O)NO)o1 | 36.8 | 10.4 | > 2.17 | 36.9 | 28.8 |  |  |  |  |  |
| Cc1ccc(OCCCCN(Cc2ccc(-c3ccccc3)cc2)Cc2ccc(/C=C/C(=O)NO)o2)cc1 | 37.6 | 2.76 | > 1.96 | 15.9 | 15.6 |  |  |  |  |  |
| O=C(/C=C/c1ccc(CN(Cc2ccccc2)Cc2ccc(-c3ccccc3)cc2)o1)NO | 14.3 | 9.01 | > 2.55 | 66.6 | 69.8 |  |  |  |  |  |
| O=C(/C=C/c1ccc(CN(CCCCOc2ccccc2)Cc2ccccc2)o1)NO | 35.9 | 6.43 | 2.12 | 14.7 | 10.6 |  |  |  |  |  |
| Cc1ccc(OCCN(CCc2ccc3c(c2)OCO3)Cc2ccc(/C=C/C(=O)NO)o2)cc1 | 18.7 | 28.5 | 0.84 | 66.7 | 27 | 11.3 | 52.5 | 4.65 | 17.8 | 3.83 |
| CCN(Cc1ccc(-c2ccccc2)cc1)Cc1ccc(/C=C/C(=O)NO)o1 | 67.9 | 1.84 | 1.25 | 12.8 | 8.4 | 6.87 | 5.72 | 0.83 | 3.42 | 4.11 |
| O=C(/C=C/c1ccc(CN(CCCOc2ccccc2)CCc2ccc3c(c2)OCO3)o1)NO | 18.8 | 37.2 | > 2.22 | 110 | 16.3 |  |  |  |  |  |
| CC(C)N(Cc1ccc(-c2ccccc2)cc1)Cc1ccc(/C=C/C(=O)NO)o1 | 24.2 | 2.74 | 1.61 | 15.5 | 15.6 |  |  |  |  |  |
| CC(C)CN(Cc1ccccc1)Cc1ccc(/C=C/C(=O)NO)o1 | 18.8 | 26.3 | 3.17 | 27.7 | 20.5 | 11.2 | 12.3 | 1.1 | 20.6 | 18.7 |
| O=C(/C=C/c1ccc(CN(CCOc2ccccc2)CCc2ccc3c(c2)OCO3)o1)NO | 23.7 | 30.6 | 2.36 | 68.3 | 37.4 |  |  |  |  |  |
| Cc1ccc(OCCCN(Cc2ccc(-c3ccccc3)cc2)Cc2ccc(/C=C/C(=O)NO)o2)cc1 | 18.1 | 2.22 | 1.66 | 11.7 | 11.5 |  |  |  |  |  |
| CCCCCCN(Cc1ccccc1)Cc1ccc(/C=C/C(=O)NO)o1 | 23.8 | 8.96 | 2.65 | 21.8 | 11 |  |  |  |  |  |
| CCCCCN(Cc1ccc(-c2ccccc2)cc1)Cc1ccc(/C=C/C(=O)NO)o1 | 13.4 | 8.23 | > 2.39 | 19.7 | 14.7 |  |  |  |  |  |
| CCCN(CCc1ccc2c(c1)OCO2)Cc1ccc(/C=C/C(=O)NO)o1 | 7.57 | 15.9 | 1.59 | 28.7 | 50.6 |  |  |  |  |  |
